According to patent US10308644B2, “Heterocyclic compounds as immunomodulators” (Incyte Corporation, priority 2016, dated 2019):

Biological target: PD-1/PD-L1 (Homo sapiens (Human), UniProt Q9NZQ7)
Test: PD-1/PD-L1 Homogeneous Time-Resolved Fluorescence (HTRF) Binding Assay
Conditions: recombinant human PD-1 (3 nM) and PD-L1 (10 nM), 25° C., PBS pH 7.4
Experimental: Example A. PD-1/PD-L1 Homogeneous Time-Resolved Fluorescence (HTRF) Binding Assay
The assays were conducted in a standard black 384-well polystyrene plate with a final volume of 20 μL. Inhibitors were first serially diluted in DMSO and then added to the plate wells before the addition of other reaction components. The final concentration of DMSO in the assay was 1%. The assays were carried out at 25° C. in the PBS buffer (pH 7.4) with 0.05% Tween-20 and 0.1% BSA. Recombinant human PD-L1 protein (19-238) with a His-tag at the C-terminus was purchased from AcroBiosystems (PD1-H5229). Recombinant human PD-1 protein (25-167) with Fc tag at the C-terminus was also purchased from AcroBiosystems (PD1-H5257). PD-L1 and PD-1 proteins were diluted in the assay buffer and 10 μL was added to the plate well. Plates were centrifuged and proteins were preincubated with inhibitors for 40 minutes. The incubation was followed by the addition of 10 μL of HTRF detection buffer supplemented with Europium cryptate-labeled anti-human IgG (PerkinElmer-AD0212) specific for Fc and anti-His antibody conjugated to SureLight®-Allophycocyanin (APC, PerkinElmer-AD0059H). After centrifugation, the plate was incubated at 25° C. for 60 min. before reading on a PHERAstar FS plate reader (665 nm/620 nm ratio). Final concentrations in the assay were—3 nM PD1, 10 nM PD-L1, 1 nM europium anti-human IgG and 20 nM anti-His-Allophycocyanin. IC50 determination was performed by fitting the curve of percent control activity versus the log of the inhibitor concentration using the GraphPad Prism 5.0 software.

Chain of PD-1/PD-L1 (Q9NZQ7 19-238): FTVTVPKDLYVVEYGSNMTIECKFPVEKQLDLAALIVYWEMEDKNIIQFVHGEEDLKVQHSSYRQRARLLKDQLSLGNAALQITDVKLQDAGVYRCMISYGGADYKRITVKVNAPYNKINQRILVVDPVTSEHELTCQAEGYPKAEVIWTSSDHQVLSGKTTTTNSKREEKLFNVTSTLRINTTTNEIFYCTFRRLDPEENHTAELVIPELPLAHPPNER

IC50, ≤ 0.01 µM:
Cc1c(Nc2nccc3cc(C(C)N4CC[C@@H](O)C4)cnc23)cccc1-c1cccc(-c2nc3cc(CN4CC[C@@H](C(=O)O)C4)cc(C#N)c3o2)c1C (stereo partly drawn) [Example 140, (3R)-1-((7-cyano-2-(3′-(3-(1-((R)-3-hydroxypyrrolidin-1-yl)ethyl)-1,7-naphthyridin-8-ylamino)-2,2′-dimethylbiphenyl-3-yl)benzo[d]oxazol-5-yl)methyl)pyrrolidine-3-carboxylic acid]
Cc1c(-c2nc3cc(CN4CC[C@@H](C(=O)O)C4)cc(C#N)c3o2)cccc1-c1cccc(-c2nc3c(s2)CN(C(=O)[C@@H]2CCCN2C)C3)c1C [Example 107, (R)-1-((7-cyano-2-(2,2′-dimethyl-3′-(5-((8)-1-methylpyrrolidine-2-carbonyl)-5,6-dihydro-4H-pyrrolo[3,4-d]thiazol-2-yl)biphenyl-3-yl)benzo[d]oxazol-5-yl)methyl)pyrrolidine-3-carboxylic acid]
Cc1c(-c2nc3cc(CN4CC5CC4CC5C(=O)O)cc(C#N)c3o2)cccc1-c1cccc(-c2nc3c(s2)CN(C(=O)CN(C)C)C3)c1C (centres unmarked) [Example 237, 2-((7-cyano-2-(3′-(5-(2-(dimethylamino)acetyl)-5,6-dihydro-4H-pyrrolo[3,4-d]thiazol-2-yl)-2,2′-dimethylbiphenyl-3-yl)benzo[d]oxazol-5-yl)methyl)-2-azabicyclo[2.2.1]heptane-5-carboxylic acid]
Cc1c(-c2nc3cc(CN4CC(C(=O)O)C4)cc(C#N)c3o2)cccc1-c1cccc(-n2cc3c(n2)CN(C(C)C)CC3)c1Cl [Example 239, 1-((2-(2′-chloro-3′-(6-isopropyl-4,5,6,7-tetrahydro-2H-pyrazolo[3,4-c]pyridin-2-yl)-2-methylbiphenyl-3-yl)-7-cyanobenzo[d]oxazol-5-yl)methyl)azetidine-3-carboxylic acid]
Cc1c(-c2nc3cc(CN4CC[C@@](C)(C(=O)O)C4)cc(C#N)c3o2)cccc1-c1cccc(NC(=O)c2nc3c(n2C)CN(C)C3)c1Cl [Example 158, (R)-1-((2-(2′-chloro-3′-(1,5-dimethyl-1,4,5,6-tetrahydropyrrolo[3,4-d]imidazole-2-carboxamido)-2-methylbiphenyl-3-yl)-7-cyanobenzo[d]oxazol-5-yl)methyl)-3-methyl pyrrolidine-3-carboxylic acid]
Cc1c(Nc2nccc3cc(CN4CC[C@@H](O)C4)cnc23)cccc1-c1cccc(-c2nc3cc(CN4CCC(C(=O)O)CC4)cc(C#N)c3o2)c1C [Example 186, (R)-1-((7-cyano-2-(3′-(3-((3-hydroxypyrrolidin-1-yl)methyl)-1,7-naphthyridin-8-ylamino)-2.2′-dimethylbiphenyl-3-yl)benzo [d]oxazol-5-yl)methyl)piperidine-4-carboxylic acid]
CNC1CCN(c2cccc(-c3cccc(-c4nc5cc(CN6CC[C@@H](C(=O)O)C6)cc(Cl)c5o4)c3C)c2Cl)CC1 [Example 43, (R)-1-((7-chloro-2-(2′-chloro-2-methyl-3′-(4-(methylamino)piperidin-1-yl)biphenyl-3-yl)benzo[d]oxazol-5-yl)methyl)pyrrolidine-3-carboxylic acid]
Cc1c(Nc2nccc3cc(CN4CC[C@@H](O)C4)cnc23)cccc1-c1cccc(-c2nc3cc(CN4CC[C@@H](C(=O)O)C4)cc(C#N)c3o2)c1Cl [Example 168, (R)-1-((2-(2-chloro-3′-(3-(((R)-3-hydroxypyrrolidin-1-yl)methyl)-1,7-naphthyridin-8-ylamino)-2′-methylbiphenyl-3-yl)-7-cyanobenzo[d]oxazol-5-yl)methyl)pyrrolidine-3-carboxylic acid]
Cc1c(-c2nc3cc(CN4CC[C@@H](C(=O)O)C4)cc(Cl)c3o2)cccc1-c1cccc(Nc2nccc3cc(CN4CC[C@H](O)C4)cnc23)c1Cl [Example 29, (R)-1-((7-chloro-2-(2′-chloro-3′-(3-(((S)-3-hydroxypyrrolidin-1-yl)methyl)-1,7-naphthyridin-8-ylamino)-2-methylbiphenyl-3-yl)benzo[d]oxazol-5-yl)methyl)pyrrolidine-3-carboxylic acid]
Cc1c(-c2nc3c(o2)CN(C(=O)CN2CCC(O)CC2)C3)cccc1-c1cccc(-c2nc3cc(CN4CC[C@@](C)(C(=O)O)C4)cc(C#N)c3o2)c1C [Example 249, (R)-1-((7-cyano-2-(3′-(5-(2-(4-hydroxypiperidin-1-yl)acetyl)-5,6-dihydro-4H-pyrrolo[3,4-d]oxazol-2-yl)-2,2′-dimethyl-[1,1′-biphenyl]-3-yl)benzo[d]oxazol-5-yl)methyl)-3-methylpyrrolidine-3-carboxylic acid]
Cc1c(-c2nc3cc(CN4CCC(C(=O)O)CC4)cc(C#N)c3o2)cccc1-c1cccc(NC(=O)c2nc3c(n2C)CCN(CCO)C3)c1Cl [Example 156, 1-((2-(2′-chloro-3′-(5-(2-hydroxyethyl)-1-methyl-4,5,6,7-tetrahydro-1H-imidazo[4,5-c]pyridine-2-carboxamido)-2-methylbiphenyl-3-yl)-7-cyanobenzo[d]oxazol-5-yl)methyl)piperidine-4-carboxylic acid]
Cc1c(-c2nc3cc(CN4CC[C@@H](C(=O)O)C4)cc(Cl)c3o2)cccc1-c1cccc(-c2nc3c(s2)CN(C(C)CO)CC3)c1C (stereo partly drawn) [Example 62, (3R)-1-((7-chloro-2-(3′-(5-(1-hydroxypropan-2-yl)-4,5,6,7-tetrahydrothiazolo[5,4-c]pyridin-2-yl)-2,2′-dimethyl-[1,1′-biphenyl]-3-yl)benzo[d]oxazol-5-yl)methyl)pyrrolidine-3-carboxylic acid]
Cc1c(-c2nc3c(o2)CCNC3)cccc1-c1cccc(-c2nc3cc(CN4CC[C@@H](C(=O)O)C4)cc(C#N)c3o2)c1C [Example 75, (R)-1-((7-cyano-2-(2,2′-dimethyl-3′-(4,5,6,7-tetrahydrooxazolo[4,5-c]pyridin-2-yl)-[1,1′-biphenyl]-3-yl)benzo[d]oxazol-5-yl)methyl)pyrrolidine-3-carboxylic acid]
Cc1c(Nc2ncnc3cc(CN4CC[C@@H](O)C4)cnc23)cccc1-c1cccc(-c2nc3cc(CN4CC[C@@](C)(C(=O)O)C4)cc(C#N)c3o2)c1C [Example 205, (R)-1-((7-cyano-2-(3′-(7-(((R)-3-hydroxypyrrolidin-1-yl)methyl)pyrido [3,2-d]pyrimidin-4-ylamino)-2,2-dimethylbiphenyl-3-yl)benzo[d]oxazol-5-yl)methyl)-3-methylpyrrolidine-3-carboxylic acid]
Cc1c(-c2nc3cc(CN4CC[C@@H](C(=O)O)C4)cc(C#N)c3o2)cccc1-c1cccc(Nc2nccc3cc(CN4CC[C@@H](O)C4)cnc23)c1Cl [Example 84, (R)-1-((2-(2′-chloro-3′-(3-(((R)-3-hydroxypyrrolidin-1-yl)methyl)-1,7-naphthyridin-8-ylamino)-2-methylbiphenyl-3-yl)-7-cyanobenzo[d]oxazol-5-yl)methyl)pyrrolidine-3-carboxylic acid]
Cc1c(-c2nc3c(o2)CCNC3)cccc1-c1cccc(-c2nc3cc(CN4CC(C(=O)O)C4)cc(Cl)c3o2)c1C [Example 77, 1-((7-chloro-2-(2,2′-dimethyl-3′-(4,5,6,7-tetrahydrooxazolo[4,5-c]pyridin-2-yl)-[1,1′-biphenyl]-3-yl)benzo[d]oxazol-5-yl)methyl)azetidine-3-carboxylic acid]
Cc1c(-c2nc3cc(CN4CC[C@@H](C(=O)O)C4)cc(C#N)c3o2)cccc1-c1cccc(-c2nc3c(s2)CN(C(C)CO)CC3)c1C (stereo partly drawn) [Example 66, (3R)-1-((7-cyano-2-(3′-(5-(1-hydroxypropan-2-yl)-4,5,6,7-tetrahydrothiazolo[5,4-c]pyridin-2-yl)-2,2′-dimethyl-[1,1′-biphenyl]-3-yl)benzo[d]oxazol-5-yl)methyl)pyrrolidine-3-carboxylic acid]
Cc1c(-c2nc3cc(CN4CC[C@@H](C(=O)O)C4)cc(C#N)c3o2)cccc1-c1cccc(-c2nc3c(s2)CN(C(=O)CN2CC[C@H](O)C2)C3)c1C [Example 112, (R)-1-((7-cyano-2-(3′-(5-(2-((S)-3-hydroxypyrrolidin-1-yl)acetyl)-5,6-dihydro-4H-pyrrolo[3,4-d]thiazol-2-yl)-2,2′-dimethylbiphenyl-3-yl)benzo[d]oxazol-5-yl)methyl)pyrrolidine-3-carboxylic acid]
Cc1c(Nc2nccc3cc(CN4CC[C@@H](C(=O)O)C4)cnc23)cccc1-c1cccc(-c2nc3cc(CNC[C@H](C)O)cc(C#N)c3o2)c1C [Example 210, (R)-1-((8-(3′-(7-cyano-5-(((S)-2-hydroxypropylamino)methyl)benzo[d]oxazol-2-yl)-2,2′-dimethylbiphenyl-3-ylamino)-1,7-naphthyridin-3-yl)methyl)pyrrolidine-3-carboxylic acid]
Cc1c(Nc2nccc3cc(CN4CCC(C(=O)O)CC4)cnc23)cccc1-c1cccc(-c2nc3cc(CN4CC[C@@H](O)C4)cc(C#N)c3o2)c1C [Example 214, (R)-1-((8-(3′-(7-cyano-5-((3-hydroxypyrrolidin-1-yl)methyl)benzo[d]oxazol-2-yl)-2,2′-dimethylbiphenyl-3-ylamino)-1,7-naphthyridin-3-yl)methyl)piperidine-4-carboxylic acid]
